The values below come from BindingDB's records for doi:10.7270/Q24F1P57 (Nmmlsc, 2009).

As a reminder, the EC50 is the midpoint of the concentration-response curve. A high value points to a less potent agent.

Sequence of Induced myeloid leukemia cell differentiation protein Mcl-1 (Q07820 whole entry): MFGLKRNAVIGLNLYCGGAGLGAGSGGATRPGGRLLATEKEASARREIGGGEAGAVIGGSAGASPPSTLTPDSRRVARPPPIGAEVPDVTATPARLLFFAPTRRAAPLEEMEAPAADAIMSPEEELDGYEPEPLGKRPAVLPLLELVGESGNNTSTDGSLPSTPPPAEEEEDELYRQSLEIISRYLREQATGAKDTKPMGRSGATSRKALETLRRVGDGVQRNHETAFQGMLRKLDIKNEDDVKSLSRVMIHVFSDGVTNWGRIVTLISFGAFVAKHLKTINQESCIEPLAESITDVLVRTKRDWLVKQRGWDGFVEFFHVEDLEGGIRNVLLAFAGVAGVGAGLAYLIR

One assay addresses Induced myeloid leukemia cell differentiation protein Mcl-1 (Homo sapiens, UniProt Q07820). Kind of assay: regulators of Bim-Mcl-1 interaction, confirmation, biochemical, bead-based flow cytometry, multiplex, HTS hits (AID 2086).
Details: not given
Take `Cc1ccc(C=NNC(=O)CSc2nnc(-c3ccc(Cl)cc3)n2-c2ccccc2)o1` [SMR000218122]: the EC50 stood at 7.75 µM.

Still in this assay, the particulars now being: inactive by the depositor's call.
`CNC1CCC(Br)CC(C(=O)C=Cc2cccc(OC)c2OC)C1=O` (centres undefined) [4-bromo-2-[(E)-3-(2,3-dimethoxyphenyl)-1-oxoprop-2-enyl]-7-(methylamino)-1-cycloheptanone] gave an EC50 of 37.4 µM.

In turn, `O=C1NC(=O)C2(Cc3c(nc4ccccn4c3=O)N3CCCCCC32)C(=O)N1Cc1ccccc1` (centres undefined) [MLS000083668] yielded an EC50 of 3.18 µM.

`Cc1ccc(-c2nc3c(c(=O)[nH]c(=O)n3Cc3ccccc3)n2C)o1` [7-methyl-8-(5-methyl-2-furanyl)-3-(phenylmethyl)purine-2,6-dione] returned an EC50 of 34.2 µM.

Consider `COc1ccc(CCNC(=O)c2ccc3nc(-c4ccco4)c(-c4ccco4)nc3c2)cc1OC` [N-[2-(3,4-dimethoxyphenyl)ethyl]-2,3-di-2-furylquinoxaline-6-carboxamide], for which a half-maximal response (EC50) required 14.8 µM.

Regarding `COc1ccc(N2C(=O)C(Cl)=C(Oc3cccc(OC)c3)C2=O)cc1` [3-chloro-4-(3-methoxyphenoxy)-1-(4-methoxyphenyl)-1H-pyrrole-2,5-dione], the midpoint of the response, the EC50, lay at 1.65 µM.

`COc1cc(/N=C2\SSNC2Cl)c(OC)cc1Cl` (centres undefined) [4-chloro-N-(4-chloro-2,5-dimethoxyphenyl)-5-dithiazolidinimine] came in with an EC50 of 21.5 µM.

Regarding `O=C(NCc1ccccc1)c1ccc2nc(-c3ccco3)c(-c3ccco3)nc2c1` [2,3-bis(furan-2-yl)-N-(phenylmethyl)quinoxaline-6-carboxamide], the EC50 was 16 µM.

`Cc1cc2nn(-c3cccc4ccccc34)nc2cc1N` [SMR000076237] gave an EC50 of 2.25 µM.
